Data taken from US9393229B2, “Method for treating abnormal polyglutamine-mediated disease” (NATIONAL TAIWAN NORMAL UNIVERSITY, priority 2013, dated 2016).

What was measured:
HSPA1A promoter = assay: Triple fluorescent reporter cells, HSPA1A promoter activity; type: cell-based, human; conditions: 100 nM-100 μM, 24 hours
From the text: (§1) Referring to three references (Zhang Y, Koushik S, Dai R, Mivechi N F, Journal of Biological Chemistry, vol. 273, no. 49, pp. 32514-32521, 1998; He M, Guo H, Yang X, Zhou L, Zhang X, Cheng L, Zeng H, Hu F B, Tanguay R M, Wu T, PLoS One, vol. 5, no. 3, e9684, 2010; and Wu Y R, Wang C K, Chen C M, Hsu Y, Lin S J, Lin Y Y, Fung H C, Chang K H, Lee-Chen G J, Human Genetics, vol. 114, no. 3, pp. 236-241, 2004), a triple fluorescent reporter plasmid was constructed in pAmCyan1-N1 with mCherry, ZsYellow1 and AmCyan1 fluorescent reporters driven by heat shock transcription factor1 (HSF1, −360˜+2, with the translation initiation A as +1), heat shock cognate protein (HSPA8, −1140˜+38, driving constitutively expressed HSP70) and heat-inducible HSP70 chaperone (HSPA1A, −273˜+215, driving heat-inducible HSP70) promoters, respectively. The fragment containing the HSF1, HSPA8 and HSPA1A driven reporters was removed with AseI and NotI restriction enzymes and used to replace an AseI-NotI fragment in pcDNA5/FRT/TO plasmid (Invitrogen). The resulting triple fluorescent reporter plasmid was used to generate triple fluorescent reporter cells by targeted insertion into Flp-In™-293 cells, according to the supplier's instructions (Invitrogen). The cells were selected by medium containing 5 μg/mL blasticidin S and 100 μg/mL hygromycin.
(§2) The three fluorescence colors were analyzed simultaneously using high-content analysis (HCA) system (ImageXpressMICRO, Molecular Devices), with excitation/emission wavelengths at […], 531/540 (ZsYellow1) and […].

in vitro [1] = conditions: human, SH-SY5Y cells
Procedure: (§3) Human embryonic kidney HEK-293 cells (ATCC No. CRL-1573) were cultivated in Dulbecco's modified Eagle's medium (DMEM) containing 10% fetal bovine serum (FBS). Human neuroblastoma SH-SY5Y cells (ATCC No. CRL-2266) were maintained in DMEM F12 supplemented with 10% FBS. Cells were cultivated at 37° C. incubator containing 5% CO2 and cell proliferation was measured based upon the reduction of the tetrazolium salt, 3,[4,5-dimethylthiazol-2-yl]-2,5-diphenyl-tetrazolium bromide (MTT). […] After one day, 20 μL MTT (5 mg/mL in PBS, Sigma) was added to cells and incubated for 2 hours. The absorbance of the purple formazan dye was measured at 570 nm by a Bio-Tek μtQuant Universal Microplate Spectrophotometer.

in vitro [2] = conditions: human, HEK-293 cells
Procedure: as §3

HSPA8 promoter = assay: Triple fluorescent reporter cells, HSPA8 promoter activity; type: cell-based, human; conditions: 100 nM-100 μM, 24 hours
From the text: as §1, §2

HSF1 promoter = assay: Triple fluorescent reporter cells, HSF1 promoter activity; type: cell-based, human; conditions: 100 nM-100 μM, 24 hours
From the text: as §1, §2

[3] = system: SCA17 mouse cerebellar slice culture; assay: SCA17 mouse cerebellar slice culture, Purkinje cell aggregation; type: cell-based
Procedure: Cerebellum was separated from p7 SCA17 mice and transferred to ice-cold medium containing 50% basal medium eagle (Invitrogen), 25% Hank's buffered salt solution (Invitrogen), 25% horse serum (Invitrogen), 0.5% D-glucose (Sigma), 1 mM GlutaMAX I (Invitrogen), 100 U/mL penicillin (Invitrogen) and 100 μg/mL streptomycin (Invitrogen). The cerebellum was separated from the other brain regions in ice-cold medium, and the hemisphere was then cut into 350 μm parasagittal sections with a vibratome (VT1200S, Leica). To improve the survival rate of cerebellar slices, we continuously bubbled the medium with 95% O2 and 5% CO2 during the sectioning. The slices were then cultured on 0.4 μm pore size culture plate inserts (Millipore) in six-well plates. All treatments were applied to the slices at day 2. After culture for 7 days, cells were immunostained with primary antibody [IP3R-1 (for Purkinje cells), 1:1000, Santa Cruz; 1TBP18 (for aggregation), 1:30000, QED Bioscience], fluorescence-conjugated secondary antibody (1:500, Invitrogen) and DAPI (1:10000, Sigma). The staining results were observed by confocal microscope (DMRE, TCS SP2, Leica).
To further confirm neuroprotective potential of the indole compounds, we applied indole and NC001-8 to the SCA17 mouse cerebellar primary and slice cultures, respectively. […]

293 ATXN3/Q75-GFP cells = assay: ATXN3/Q75 aggregation assay (high content analysis); type: cell-based, human; conditions: at 100 nM; 6 days doxycycline and oxaliplatin
Procedure: Then, doxycycline (10 μg/mL, BD) was added to the medium in each well to induce ATXN3/Q75-GFP expression for 6 days. […] Then, cells were stained with Hoechst 33342 (0.1 μg/mL, Sigma) and aggregation percentage was assessed by high content analysis (HCA) system (ImageXpressMICRO, Molecular Devices), with excitation/emission wavelengths at 482/536 (EGFP).

LC3 = assay: LC3-II/LC3-I ratio (autophagy) in 293 ATXN3/Q75 cells, Western blot; type: cell-based, human; conditions: 293 ATXN3/Q75 cells +Dox 6 days, 200 nM; +Dox alone 59%
Procedure: Total proteins were prepared using lysis buffer containing 50 mM Tris-HCl, 150 mM NaCl, 1 mM EDTA, 1 mM EGTA, 0.1% SDS and 0.5% sodium deoxycholate, 1% Triton X-100, and protease inhibitor cocktail (Calbiochem). Proteins (25 μg) were separated on 10% SDS-polyacrylamide gel electrophoresis and blotted on to nitrocellulose membranes by reverse electrophoresis. After blocking, the membrane was probed with antibody to HSF1 (1:1000 dilution, Abnova), HSPA8 (1:500 dilution, Santa Cruz), HSPA1A (1:500 dilution, Santa Cruz), GFP (1:500 dilution, Santa Cruz), LC3 (1:3000 dilution, MBL International), TBP (N-12) (1:500 dilution, Santa Cruz), β-actin (1:5000 dilution, Millipore) or GAPDH (1:1000 dilution, MDBio) at 4° C. overnight. Then the immune complexes were detected by horseradish peroxidase-conjugated goat anti-mouse (Jackson ImmunoResearch) or goat anti-rabbit (Rochland) IgG antibody (1:5000 dilution, GeneTex) and chemiluminescent substrate (Millipore).

SH-SY5Y cells = assay: MTT cytotoxicity against SH-SY5Y cells; conditions: read-out: IC50 (cytotoxicity) against SH-SY5Y cells; MTT assay, 24 hours
Procedure: as §3

| Molecule | HSPA1A promoter activity (HSPA1A promoter) | IC50 at 24 h (in vitro [1]) | IC50 at 24 h (in vitro [2]) | HSPA8 promoter activity (HSPA8 promoter) | HSF1 promoter activity (HSF1 promoter) | reduction of Purkinje cell aggregation ([3]; 10 μM) | ATXN3/Q75 aggregation as compared to untreated cells (100%) (293 ATXN3/Q75-GFP cells) | reduction of Purkinje cell aggregation ([3]; 10 nM) | LC3-II/LC3-I ratio (LC3) | IC50 (SH-SY5Y cells) |
| --- | --- | --- | --- | --- | --- | --- | --- | --- | --- | --- |
| O=C1CCc2[nH]c3ccccc3c21 [NC001-8, 3,4-dihydrocyclopenta[b]indol-1(2H)-one] | same trend of enhancement | 390 µM | > 1000 µM | same trend of enhancement | same trend of enhancement | 16% | – | – | – | – |
| O=C(CCCCCCC(=O)Nc1ccccc1)NO [SAHA, suberoylanilide hydroxamic acid] | – | – | – | – | – | – | 85% | – | – | – |
| c1ccc2[nH]ccc2c1 [indole] | same trend of enhancement | 680 µM | > 1000 µM | same trend of enhancement | same trend of enhancement | – | – | 28% | – | – |
| CO[C@H]1C[C@@H]2CC[C@@H](C)[C@@](O)(O2)C(=O)C(=O)N2CCCC[C@H]2C(=O)O[C@H]([C@H](C)C[C@@H]2CC[C@@H](O)[C@H](OC)C2)CC(=O)[C@H](C)/C=C(\C)[C@@H](O)[C@@H](OC)C(=O)[C@H](C)C[C@H](C)/C=C/C=C/C=C/1C [rapamycin] | – | – | – | – | – | – | – | – | 98% | – |
| geranylgeranylacetone [GGA, reference compound] | enhanced | – | – | enhanced | enhanced | – | 85% | – | – | 1000 µM |
